# Results from patent US20240058339A1, “COMBINATION THERAPY FOR CANCERS WITH KRAS MUTATION” (COTHERA BIOSCIENCE, INC., priority 2019, published 2024).
# System: KRAS mutant colorectal cancer cells
# Experiment: Cellular senescence assay, separate examples with single drugs
# Type: cell-based
# Description: Senescence is a state when cells enter a stable growth arrest. Unlike a quiescent cell, a senescent cell will not re-enter the cell cycle in response to any known physiological stimuli. A biomarker of senescence is the increased level of β-galactosidase activity at pH 6.0. Cellular senescence assay was performed with Senescence β-Galactosidase Cell Staining Kit (Cell Signaling, USA) according to the manufacturer's instructions. Briefly, cells cultured in 6-well tissue culture plates were treated with the designated drugs or DMSO. The cells were continually incubated for additional 4-8 days before being fixed for further testing. For senescence assay, b-Galactosidase Staining Solution was added to the fixed cells and the plates were incubated at 37° C. to allow color to develop. Microscopic images were then taken and the cells in senescence were indicated by the development of blue color (shown as black spots in the figures). The experimental design is the same as in Example 15.
row,SMILES,induction of cell senescence
1,COc1cccc2c1C(=O)c1c(O)c3c(c(O)c1C2=O)C[C@@](O)(C(=O)CO)C[C@@H]3O[C@H]1C[C@H](N)[C@H](O)[C@H](C)O1 [doxorubicin],did not induce cell senescence
2,COc1cc([C@@H]2c3cc4c(cc3[C@@H](O[C@@H]3O[C@@H]5CO[C@@H](C)O[C@H]5[C@H](O)[C@H]3O)[C@H]3COC(=O)[C@H]23)OCO4)cc(OC)c1O [etoposide],did not induce cell senescence
